Measured values: BindingDB's records for doi:10.1186/2191-2858-2-21 (University of The West Indies, 2012)

Legend:
Cytochrome P450 2C19 = Cytochrome P450 2C19 (Homo sapiens, UniProt P33261); test: CYP Inhibition Assay
Experimental: (§1) The test compounds were evaluated for their ability to inhibit the catlytic activity of human CYP1 enzymes by means of high throughput fluorometric detection assay conducted in 96-well microtitre plates.

Cytochrome P450 1A1 = biological target: T1, Cytochrome P450 1A1 (Homo sapiens, UniProt P04798); test: CYP Inhibition Assay
T1 sequence (P04798 whole entry): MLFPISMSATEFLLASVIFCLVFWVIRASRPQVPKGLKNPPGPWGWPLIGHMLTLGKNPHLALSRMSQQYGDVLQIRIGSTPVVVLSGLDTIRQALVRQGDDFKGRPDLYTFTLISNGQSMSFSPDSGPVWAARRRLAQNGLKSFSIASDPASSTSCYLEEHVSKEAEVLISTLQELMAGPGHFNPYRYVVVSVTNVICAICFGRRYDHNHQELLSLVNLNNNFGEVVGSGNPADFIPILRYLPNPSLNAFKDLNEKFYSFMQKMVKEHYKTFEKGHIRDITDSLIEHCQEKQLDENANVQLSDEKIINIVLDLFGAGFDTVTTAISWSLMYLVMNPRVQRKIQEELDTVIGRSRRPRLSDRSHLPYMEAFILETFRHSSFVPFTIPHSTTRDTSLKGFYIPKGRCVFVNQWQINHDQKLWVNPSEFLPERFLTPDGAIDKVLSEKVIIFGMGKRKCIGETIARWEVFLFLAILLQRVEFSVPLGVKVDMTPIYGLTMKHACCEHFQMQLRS
Experimental: as §1

Chain of Cytochrome P450 2C19 (P33261 whole entry): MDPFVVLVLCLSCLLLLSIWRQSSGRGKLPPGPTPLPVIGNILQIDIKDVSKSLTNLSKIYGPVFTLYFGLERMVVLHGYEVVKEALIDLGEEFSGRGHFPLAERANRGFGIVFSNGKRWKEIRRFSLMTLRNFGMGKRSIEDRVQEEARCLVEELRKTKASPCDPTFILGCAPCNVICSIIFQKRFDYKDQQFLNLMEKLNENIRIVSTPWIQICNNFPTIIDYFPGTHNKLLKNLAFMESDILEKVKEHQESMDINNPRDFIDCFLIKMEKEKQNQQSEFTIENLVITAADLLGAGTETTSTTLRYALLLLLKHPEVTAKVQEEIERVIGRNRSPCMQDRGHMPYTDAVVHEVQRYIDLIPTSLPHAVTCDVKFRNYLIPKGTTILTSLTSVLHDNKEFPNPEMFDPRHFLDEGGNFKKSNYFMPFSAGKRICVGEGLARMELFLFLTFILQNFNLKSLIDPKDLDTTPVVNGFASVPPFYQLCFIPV

## CC(C)(O)CCCC1(C)CC(=O)c2cc(O)c(Br)cc2O1 (configuration not stated) [PBQ1]
Cytochrome P450 2C19
  IC50: 80 nM
Cytochrome P450 1A1
  IC50: 390 nM
